This note sets out measurements from ChEMBL document CHEMBL1147822, “One-pot synthesis and SAR study of cis-2,6-dialkyl-4-chloro-tetrahydropyrans” (2006).

Common to all, as to assay type: functional
The subject of one assay is A2780. Put plainly: Antiproliferative activity against human A2780 cells. To be noted: for CC50: read-out: LC50 (the source's name).
For a further assay, the system named is WiDr. Put plainly: Antiproliferative activity against human WiDr cells.
The subject of a further assay is SW1573. In words: Antiproliferative activity against human SW1573 cells. To be noted: for CC50: read-out: LC50 (the source's name).

Where only a bound is given, the exact number is not on record here.

In the case of `CC(C)C[C@H]1C[C@@H](Cl)C[C@@H](C2CCCCC2)O1`, in the assay with A2780, growth was halved (GI50) at 20 µM, the TGI (commonly the concentration at which net growth stops) turned out to be 38 µM and the CC50 was 73 µM. Further, in the assay on WiDr, halving of growth (GI50) required 26 µM and the TGI came to 63 µM. Besides, in the assay with SW1573, growth was halved (GI50) at 22 µM, the TGI was 43 µM and the CC50 is 82 µM.

`CC(C)C[C@H]1C[C@@H](Cl)C[C@@H](c2ccc([N+](=O)[O-])cc2)O1`: the GI50 (as a rule, the concentration at which growth is held to half of that of the control) in the assay on A2780 was determined as 21 µM; in the assay with WiDr it was 38 µM; in the assay with SW1573, 30 µM. This compound also registered a TGI in the assay on A2780 of 64 µM.

`COc1ccc([C@@H]2C[C@H](Cl)C[C@H](CC(C)C)O2)cc1`: in the assay on A2780, the GI50 stood at 25 µM, the TGI stood at 57 µM and the CC50 turned out to be 95 µM. In the assay with WiDr, this compound displayed a GI50 of 36 µM; an LC50 (lethal concentration, 50% net cell kill) of 95 µM; a TGI of 73 µM. Moreover, in the assay on SW1573, the GI50 was 30 µM and the TGI came to 80 µM.

Consider `CC(C)C[C@H]1C[C@@H](Cl)C[C@@H](c2ccccc2)O1`, for which the values for the GI50 with A2780, in the assay with WiDr and in the assay on SW1573 were 17 µM, 39 µM and 24 µM, respectively. For the same compound, the TGI in the assay on A2780 was found to be 35 µM; in the assay with WiDr, 88 µM; in the assay on SW1573, 48 µM. Further, the results for the CC50 in the assay on A2780 and with SW1573 were 72 µM and 90 µM, respectively.

As to `CC(C)C[C@H]1C[C@@H](Cl)C[C@@H](C)O1`, the GI50 with A2780, in the assay with WiDr and in the assay with SW1573 was above 100 µM each time.

For the compound `O=[N+]([O-])c1ccc([C@H]2C[C@@H](Cl)CCO2)cc1`, the GI50 in the assay with A2780, with WiDr and in the assay on SW1573 was above 100 µM in each case.

For `CC(C)C[C@H]1C[C@@H](Cl)CCO1`, the GI50 with A2780, with WiDr and in the assay with SW1573 was above 100 µM throughout.

Regarding `CC(C)C[C@@H]1C[C@H](Cl)C[C@H](CC(C)C)O1`, the GI50 was 63 µM in the assay on A2780, above 100 µM in the assay on WiDr and 67 µM with SW1573. Further, the TGI in the assay on A2780 turned out to be 90 µM; with SW1573, 89 µM.

For the compound `Cl[C@H]1CCO[C@@H](c2ccccc2)C1`, the GI50 with A2780, with WiDr and with SW1573 was above 100 µM each time.
